Results as given in patent publication US20230226005A1, “Methods of Treating, Ameliorating, Shortening Duration, and/or Reversing Symptoms and/or Complications of a Coronavirus Infection” (Yale University, priority 2020, published 2023).

Tests used:
COVID-19 = details: hospitalized COVID-19 patients; 200 mg po three times daily for 5 days; cited from earlier work
[1] = system: SARS-CoV-2 cellular entry; details: in vitro as well as in vivo; cited from earlier work
COVID-19 infection [2] = test: Phase IIa study: throat-family symptom score; format: in vivo
COVID-19 infection [3] = test: Phase IIa study: body-family symptom score; format: in vivo; details: for body-family symptoms, Fitzmaurice mixed effects model, Effect: Camostat vs Placebo
SARS-CoV-1 = details: mice; reduced from 100%; concentration similar to clinically achievable concentration in humans; cited from earlier work
COVID-19 infection [4] = test: Phase IIa study: gastrointestinal-family symptom score; format: in vivo; details: for gastrointestinal-family symptoms, Fitzmaurice mixed effects model, Effect: Camostat vs Placebo

CN(C)C(=O)COC(=O)Cc1ccc(OC(=O)c2ccc(NC(=N)N)cc2)cc1 [camostat, 4-[[4-[(Aminoiminomethyl)amino]benzoyl]oxy]benzeneacetic acid 2-(dimethylamino)-2-oxoethyl ester]
adverse effects (COVID-19): adverse effects were not observed | effect on clinical severity (e.g. escalation to ICU admission) (COVID-19): did not have an observable effect | SARS-CoV-2 cellular entry [1]: can be blocked | throat-family symptom score, Fitzmaurice model, Camostat (COVID-19 infection [2]; day 0): 2.3 (0.3) | throat-family symptom score, Fitzmaurice model, Camostat (COVID-19 infection [2]; day 1): 2 (0.3) | throat-family symptom score, Fitzmaurice model, Effect (placebo vs camostat) (COVID-19 infection [2]; day 1): −0.7 (0.4) | throat-family symptom score, Fitzmaurice model, Camostat (COVID-19 infection [2]; day 2): 1.7 (0.4) | throat-family symptom score, Fitzmaurice model, Effect (placebo vs camostat) (COVID-19 infection [2]; day 2): −0.8 (0.4) | throat-family symptom score, Fitzmaurice model, Camostat (COVID-19 infection [2]; day 3): 1.6 (0.3) | throat-family symptom score, Fitzmaurice model, Effect (placebo vs camostat) (COVID-19 infection [2]; day 3): −0.7 (0.4) | throat-family symptom score, Fitzmaurice model, Camostat (COVID-19 infection [2]; day 4): 1.7 (0.3) | throat-family symptom score, Fitzmaurice model, Effect (placebo vs camostat) (COVID-19 infection [2]; day 4): −0.9 (0.4) | throat-family symptom score, Fitzmaurice model, Camostat (COVID-19 infection [2]; day 5): 1.1 (0.3) | throat-family symptom score, Fitzmaurice model, Effect (placebo vs camostat) (COVID-19 infection [2]; day 5): −0.2 (0.4) | throat-family symptom score, Fitzmaurice model, Camostat (COVID-19 infection [2]; day 6): 0.9 (0.4) | throat-family symptom score, Fitzmaurice model, Effect (placebo vs camostat) (COVID-19 infection [2]; day 6): −0.1 (0.4) | throat-family symptom score, Fitzmaurice model, Camostat (COVID-19 infection [2]; day 7): 0.7 (0.4) | throat-family symptom score, Fitzmaurice model, Effect (placebo vs camostat) (COVID-19 infection [2]; day 7): −0.3 (0.4) | throat-family symptom score, Fitzmaurice model, Camostat (COVID-19 infection [2]; day 8): 0.6 (0.4) | throat-family symptom score, Fitzmaurice model, Effect (placebo vs camostat) (COVID-19 infection [2]; day 8): −0.2 (0.4) | throat-family symptom score, Fitzmaurice model, Camostat (COVID-19 infection [2]; day 9): 0.4 (0.4) | throat-family symptom score, Fitzmaurice model, Effect (placebo vs camostat) (COVID-19 infection [2]; day 9): −0.1 (0.4) | throat-family symptom score, Fitzmaurice model, Camostat (COVID-19 infection [2]; day 10): 0.5 (0.4) | throat-family symptom score, Fitzmaurice model, Effect (placebo vs camostat) (COVID-19 infection [2]; day 10): −0.4 (0.4) | throat-family symptom score, Fitzmaurice model, Camostat (COVID-19 infection [2]; day 11): 0.6 (0.4) | throat-family symptom score, Fitzmaurice model, Effect (placebo vs camostat) (COVID-19 infection [2]; day 11): −0.4 (0.4) | throat-family symptom score, Fitzmaurice model, Camostat (COVID-19 infection [2]; day 12): 0.5 (0.4) | throat-family symptom score, Fitzmaurice model, Effect (placebo vs camostat) (COVID-19 infection [2]; day 12): −0.4 (0.4) | throat-family symptom score, Fitzmaurice model, Camostat (COVID-19 infection [2]; day 13): 0.5 (0.4) | throat-family symptom score, Fitzmaurice model, Effect (placebo vs camostat) (COVID-19 infection [2]; day 13): −0.4 (0.5) | throat-family symptom score, Fitzmaurice model, Camostat (COVID-19 infection [2]; day 14): 0.5 (0.4) | throat-family symptom score, Fitzmaurice model, Effect (placebo vs camostat) (COVID-19 infection [2]; day 14): −0.5 (0.5) | body-family symptoms, Fitzmaurice mixed effects model, Camostat (COVID-19 infection [3]; Day 0): 17.1 (1.2) | body-family symptoms, Fitzmaurice mixed effects model, Camostat (COVID-19 infection [3]; Day 1): 14.3 (1.5) | body-family symptoms, Fitzmaurice mixed effects model, Effect (COVID-19 infection [3]; Day 1): −0.6 (1.7) | body-family symptoms, Fitzmaurice mixed effects model, Camostat (COVID-19 infection [3]; Day 2): 13.6 (1.5) | body-family symptoms, Fitzmaurice mixed effects model, Effect (COVID-19 infection [3]; Day 2): −2.1 (1.7) | body-family symptoms, Fitzmaurice mixed effects model, Camostat (COVID-19 infection [3]; Day 3): 11.9 (1.5) | body-family symptoms, Fitzmaurice mixed effects model, Effect (COVID-19 infection [3]; Day 3): −0.8 (1.7) | body-family symptoms, Fitzmaurice mixed effects model, Camostat (COVID-19 infection [3]; Day 4): 8.9 (1.5) | body-family symptoms, Fitzmaurice mixed effects model, Effect (COVID-19 infection [3]; Day 4): 0.9 (1.7) | body-family symptoms, Fitzmaurice mixed effects model, Camostat (COVID-19 infection [3]; Day 5): 7.3 (1.5) | body-family symptoms, Fitzmaurice mixed effects model, Effect (COVID-19 infection [3]; Day 5): 4.2 (1.7) | body-family symptoms, Fitzmaurice mixed effects model, Camostat (COVID-19 infection [3]; Day 6): 5.2 (1.5) | body-family symptoms, Fitzmaurice mixed effects model, Effect (COVID-19 infection [3]; Day 6): 4.4 (1.7) | body-family symptoms, Fitzmaurice mixed effects model, Camostat (COVID-19 infection [3]; Day 7): 4.9 (1.6) | body-family symptoms, Fitzmaurice mixed effects model, Effect (COVID-19 infection [3]; Day 7): 2.8 (1.7) | body-family symptoms, Fitzmaurice mixed effects model, Camostat (COVID-19 infection [3]; Day 8): 3.9 (1.6) | body-family symptoms, Fitzmaurice mixed effects model, Effect (COVID-19 infection [3]; Day 8): 3.1 (1.8) | body-family symptoms, Fitzmaurice mixed effects model, Camostat (COVID-19 infection [3]; Day 9): 3.8 (1.6) | body-family symptoms, Fitzmaurice mixed effects model, Effect (COVID-19 infection [3]; Day 9): 3.1 (1.8) | body-family symptoms, Fitzmaurice mixed effects model, Camostat (COVID-19 infection [3]; Day 10): 3.3 (1.6) | body-family symptoms, Fitzmaurice mixed effects model, Effect (COVID-19 infection [3]; Day 10): 3.1 (1.8) | body-family symptoms, Fitzmaurice mixed effects model, Camostat (COVID-19 infection [3]; Day 11): 3 (1.6) | body-family symptoms, Fitzmaurice mixed effects model, Effect (COVID-19 infection [3]; Day 11): 2.8 (1.8) | body-family symptoms, Fitzmaurice mixed effects model, Camostat (COVID-19 infection [3]; Day 12): 3.8 (1.6) | body-family symptoms, Fitzmaurice mixed effects model, Effect (COVID-19 infection [3]; Day 12): 1.6 (1.8) | body-family symptoms, Fitzmaurice mixed effects model, Camostat (COVID-19 infection [3]; Day 13): 3 (1.6) | body-family symptoms, Fitzmaurice mixed effects model, Effect (COVID-19 infection [3]; Day 13): 2.4 (1.8) | body-family symptoms, Fitzmaurice mixed effects model, Camostat (COVID-19 infection [3]; Day 14): 3.2 (1.6) | body-family symptoms, Fitzmaurice mixed effects model, Effect (COVID-19 infection [3]; Day 14): 2 (1.8) | mortality following SARS-CoV-1 infection (SARS-CoV-1): 30-35% | gastrointestinal-family symptoms, Fitzmaurice mixed effects model, Camostat (COVID-19 infection [4]; Day 0): 2.1 (0.2) | gastrointestinal-family symptoms, Fitzmaurice mixed effects model, Camostat (COVID-19 infection [4]; Day 1): 2.4 (0.3) | gastrointestinal-family symptoms, Fitzmaurice mixed effects model, Effect (COVID-19 infection [4]; Day 1): −0.4 (0.4) | gastrointestinal-family symptoms, Fitzmaurice mixed effects model, Camostat (COVID-19 infection [4]; Day 2): 2 (0.3) | gastrointestinal-family symptoms, Fitzmaurice mixed effects model, Effect (COVID-19 infection [4]; Day 2): −0.1 (0.4) | gastrointestinal-family symptoms, Fitzmaurice mixed effects model, Camostat (COVID-19 infection [4]; Day 3): 1.6 (0.3) | gastrointestinal-family symptoms, Fitzmaurice mixed effects model, Effect (COVID-19 infection [4]; Day 3): 0.1 (0.4) | gastrointestinal-family symptoms, Fitzmaurice mixed effects model, Camostat (COVID-19 infection [4]; Day 4): 1 (0.3) | gastrointestinal-family symptoms, Fitzmaurice mixed effects model, Effect (COVID-19 infection [4]; Day 4): 0.8 (0.4) | gastrointestinal-family symptoms, Fitzmaurice mixed effects model, Camostat (COVID-19 infection [4]; Day 5): 0.9 (0.3) | gastrointestinal-family symptoms, Fitzmaurice mixed effects model, Effect (COVID-19 infection [4]; Day 5): 0.5 (0.4) | gastrointestinal-family symptoms, Fitzmaurice mixed effects model, Camostat (COVID-19 infection [4]; Day 6): 0.8 (0.3) | gastrointestinal-family symptoms, Fitzmaurice mixed effects model, Effect (COVID-19 infection [4]; Day 6): 0.6 (0.4) | gastrointestinal-family symptoms, Fitzmaurice mixed effects model, Camostat (COVID-19 infection [4]; Day 7): 0.7 (0.3) | gastrointestinal-family symptoms, Fitzmaurice mixed effects model, Effect (COVID-19 infection [4]; Day 7): 0.4 (0.4) | gastrointestinal-family symptoms, Fitzmaurice mixed effects model, Camostat (COVID-19 infection [4]; Day 8): 0.6 (0.3) | gastrointestinal-family symptoms, Fitzmaurice mixed effects model, Effect (COVID-19 infection [4]; Day 8): 0.5 (0.4) | gastrointestinal-family symptoms, Fitzmaurice mixed effects model, Camostat (COVID-19 infection [4]; Day 9): 0.5 (0.3) | gastrointestinal-family symptoms, Fitzmaurice mixed effects model, Effect (COVID-19 infection [4]; Day 9): 0.5 (0.4) | gastrointestinal-family symptoms, Fitzmaurice mixed effects model, Camostat (COVID-19 infection [4]; Day 10): 0.8 (0.3) | gastrointestinal-family symptoms, Fitzmaurice mixed effects model, Effect (COVID-19 infection [4]; Day 10): 0.2 (0.4) | gastrointestinal-family symptoms, Fitzmaurice mixed effects model, Camostat (COVID-19 infection [4]; Day 11): 0.5 (0.3) | gastrointestinal-family symptoms, Fitzmaurice mixed effects model, Effect (COVID-19 infection [4]; Day 11): 0.2 (0.4) | gastrointestinal-family symptoms, Fitzmaurice mixed effects model, Camostat (COVID-19 infection [4]; Day 12): 0.4 (0.3) | gastrointestinal-family symptoms, Fitzmaurice mixed effects model, Effect (COVID-19 infection [4]; Day 12): 0.3 (0.4) | gastrointestinal-family symptoms, Fitzmaurice mixed effects model, Camostat (COVID-19 infection [4]; Day 13): 0.5 (0.3) | gastrointestinal-family symptoms, Fitzmaurice mixed effects model, Effect (COVID-19 infection [4]; Day 13): 0.1 (0.4) | gastrointestinal-family symptoms, Fitzmaurice mixed effects model, Camostat (COVID-19 infection [4]; Day 14): 0.3 (0.3) | gastrointestinal-family symptoms, Fitzmaurice mixed effects model, Effect (COVID-19 infection [4]; Day 14): 0.4 (0.4)
